# Measurements published in US5164388A, “Heterocyclic peptide renin inhibitors” (Abbott Laboratories, priority 1991, dated 1992).
# Biological target: T1, human renal renin (Homo sapiens, UniProt P00797)
# T1 construct: human renal renin, free from acid proteolytic activity; from tissue
# T1 sequence (P00797 67-406): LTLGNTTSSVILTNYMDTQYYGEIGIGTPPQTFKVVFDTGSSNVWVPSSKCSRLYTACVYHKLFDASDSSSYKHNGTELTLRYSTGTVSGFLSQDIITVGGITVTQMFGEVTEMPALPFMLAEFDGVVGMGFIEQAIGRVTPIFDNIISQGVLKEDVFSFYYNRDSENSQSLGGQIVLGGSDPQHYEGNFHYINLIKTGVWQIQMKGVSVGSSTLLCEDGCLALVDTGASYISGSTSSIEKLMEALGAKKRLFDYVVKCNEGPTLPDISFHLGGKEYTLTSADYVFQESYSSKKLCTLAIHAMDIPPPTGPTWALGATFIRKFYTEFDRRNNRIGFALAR
# Test: Inhibition of human renal renin in vitro (angiotensin I formed, radioimmunoassay)
# Type: biochemical
# Conditions: human angiotensinogen substrate, 37 degrees C., pH 6.0
# Description: The novel compounds of the present invention are also useful for treating congestive heart failure. […] At the end of the incubation, the amount of angiotensin I formed is measured by radioimmunoassay and the molar concentration required to cause 50% inhibition, expressed as the IC50, is calculated.
row,SMILES,IC50
1,"CCCCC(C(=O)N[C@@H](CC1CCCCC1)[C@@H](O)[C@@H](O)CC(C)C)N1CCCC(Cc2ccccc2)C1=O (mixture of isomers) [Example 56A, 2(RS)-(3-Benzyl-2-oxo-1-piperidin-1-yl)-hexanoic acid Amide of 2(S)-Amino-1-cyclohexyl-3(R),4(S)-dihydroxy-6-heptane]",410 nM
2,"CC(C)C[C@H](O)[C@H](O)[C@H](CC1CCCCC1)NC(=O)C(Cc1cnc[nH]1)N1CCC[C@@](Cc2ccccc2)(NC(=O)OCc2ccccc2)C1=O (single isomer, unassigned) [Example 87, (2R or 2S)-((3S)-(Benzyloxycarbonyl)amino)-3-phenylmethyl-2-oxo-1-piperidinyl)-3-(4-imidazolyl)propionic acid amide of (2S,3R,4S)-2-amino-1-cyclohexyl-3,4-dihydroxy-6-methylheptane]",1.4 nM
3,"CC(C)C[C@H](O)[C@H](O)[C@H](CC1CCCCC1)NC(=O)C(Cc1cnc[nH]1)N1CCC[C@](Cc2ccccc2)(NC(=O)OCc2ccccc2)C1=O (single isomer, unassigned) [Example 88, (2R or 2S)-((3R)-((Benzyloxycarbonyl)amino)-3-phenylmethyl-2-oxo-1-piperidinyl)-3-(4-imidazolyl)propionic acid amide of (2S,3R,4S)-2-amino-1-cyclohexyl-3,4-dihydroxy-6-methylheptane]",28 nM
4,"CCCCC(C(=O)N[C@@H](CC1CCCCC1)[C@@H](O)[C@@H](O)CC(C)C)N1CCN(c2ncccn2)CC1 (stereo partly drawn) [Example 12A, 2-(4-(2-Pyrimidyl)-piperazin-1-yl)-hexanoic acid Amide of 2(S)-Amino-1-cyclohexyl-3(R),4(S)-dihydroxy-6-methylheptane]",770 nM
5,"CCCCC(C(=O)N[C@@H](CC1CCCCC1)[C@@H](O)[C@@H](O)CC(C)C)N1CCC(Cc2ccccc2)CC1 (stereo partly drawn) [Example 13, 2-(4-Benzylpiperidin-1-yl)-hexanoic acid Amide of 2(S)-Amino-1-cyclohexyl-3(R),4(S)-dihydroxy-6-methylheptane]",430 nM
6,"CCCCC(C(=O)N[C@@H](CC1CCCCC1)[C@@H](O)[C@@H](O)CC(C)C)N1CCCC(Cc2ccccc2)C1 (stereo partly drawn) [Example 18, 2-(3-Benzylpiperidin-1-yl)-hexanoic acid Amide of 2(S)-Amino-1-cyclohexyl-3(R),4(S)-dihydroxy-6-methylheptane]",920 nM
7,"CCCCC(C(=O)N[C@@H](CC1CCCCC1)[C@@H](O)[C@@H](O)CC(C)C)N1CCCC(Cc2ccccc2)C1 (stereo partly drawn) [Example 20, 2(3-Benzylpiperidin-1-yl)-hexanoic acid Amide of 2(S)-Amino-1-cyclohexyl-3(R),4(S)-dihydroxy-6-methylheptane]",240 nM
8,CCCC[C@H](NC[C@@H](Cc1ccccc1)NC(=O)OCc1ccccc1)C(=O)OC [Example 21],62 nM
9,CCCC[C@@H](C(=O)OC)N(CC(=O)OCc1ccccc1)C[C@@H](Cc1ccccc1)NC(=O)OCc1ccccc1 [Example 22],300 nM
10,CCCC[C@@H](C(=O)N[C@@H](CC1CCCCC1)[C@@H](O)[C@@H](O)CC(C)C)N1CC(=O)N[C@H](Cc2ccccc2)C1 [Example 24],170 nM
11,"CCCCC(C(=O)N[C@@H](CC1CCCCC1)[C@@H](O)[C@@H](O)CC(C)C)N1CCN(Cc2ccccc2)CC1 (stereo partly drawn) [Example 32A, 2-(4-Benzyl-piperazin-1-yl)-hexanoic acid Amide of 2(S)-Amino-1-cyclohexyl-3(R),4(S)-dihydroxy-6-methylheptane]",810 nM
12,"CCCCC(C(=O)N[C@@H](CC1CCCCC1)[C@@H](O)[C@@H](O)CC(C)C)N1CCN(C(=O)OC(C)(C)C)[C@@H](Cc2ccccc2)C1 (stereo partly drawn) [Example 34A, 2-(3S-Benzyl-4-N-tert-butyloxycarbonyl-piperazin-1-yl)-hexanoic acid Amide of 2(S)-Amino-1-cyclohexyl-3(R),4(S)-dihydroxy-6-methylheptane]",100 nM
13,"CCCCC(C(=O)N[C@@H](CC1CCCCC1)[C@@H](O)[C@@H](O)CC(C)C)N1CCN(C(=O)N(C)C)[C@H](Cc2ccccc2)C1 (stereo partly drawn) [Example 35A, 2-(3R-Benzyl-4-N-dimethylaminocarbonyl-piperazin-1-yl)-hexanoic acid Amide of 2(S)-Amino-1-cyclohexyl-3(R),4(S)-dihydroxy-6-methylheptane]",91 nM
14,"CC(C)C[C@H](O)[C@H](O)[C@H](CC1CCCCC1)NC(=O)C(Cc1cscn1)N1CCN(Cc2ccccc2)[C@H](Cc2ccccc2)C1 (stereo partly drawn) [Example 36, 3-(4-Thiazolyl)-2-(R,S)-(3R-benzyl-4-N-benzylpiperazin-1-yl)-propionic acid Amide of 2(S)-Amino-1-cyclohexyl-3(R),4(S)-dihydroxy-6-methylheptane]",330 nM
15,"CCCC[C@@H](C(=O)N[C@@H](CC1CCCCC1)[C@@H](O)[C@@H](O)CC(C)C)N1CCN(C(=O)OC(C)(C)C)[C@H](Cc2ccccc2)C1=O [Example 44, 2(S)-(3R-Benzyl-4N-tert-butyloxycarbonyl-2-keto-piperazin-1-yl)-hexanoic acid Amide of 2(S)-Amino-1-cyclohexyl-3(R),4(S)-dihydroxy-6-methylheptane]",15 nM
16,"CC(C)C[C@H](O)[C@H](O)[C@H](CC1CCCCC1)NC(=O)[C@@H](Cc1c[nH]cn1)N1CCN(C(=O)OC(C)(C)C)[C@H](Cc2ccccc2)C1=O [Example 45, 3R-(4-Imidazolyl)-2(R)-(3R-benzyl-4-N-tert-butyloxycarbonyl-2-keto-piperazin-1-yl)-propionic acid Amide of 2(S)-Amino-1-cyclohexyl-3(R),4(S)-dihydroxy-6-methylheptane]",13 nM
17,"CCCC[C@@H](C(=O)N[C@@H](CC1CCCCC1)[C@@H](O)[C@@H](O)CC(C)C)N1CCN(C(=O)N2CCN(C)CC2)[C@H](Cc2ccccc2)C1=O [Example 47, 2(S)-(3R-Benzyl-4-N-(4-(N'-methyl)-piperazin-1-yl-carbonyl)-2-keto-piperazin-1-yl)-hexanoic acid Amide of 2(S)-Amino-1-cyclohexyl-3(R),4(S)-dihydroxy-6-methylheptane]",81 nM
18,"CCCC[C@@H](C(=O)N[C@@H](CC1CCCCC1)[C@@H](O)[C@@H](O)CC(C)C)N1CCN(C(=O)N(C)CCOCOC)[C@H](Cc2ccccc2)C1=O [Example 48, 2(S)-(3R-Benzyl-4-N-(N-methyl-N-(methoxymethoxyethyl)-aminocarbonyl)-2-keto-piperazin-1-yl)-hexanoic acid Amide of 2(S)-Amino-1-cyclohexyl-3(R),4(S)-dihydroxy-6-methylheptane]",22 nM
19,"CCCC[C@@H](C(=O)N[C@@H](CC1CCCCC1)[C@@H](O)[C@@H](O)CC(C)C)N1CCN(C(=O)N2CCOCC2)[C@H](Cc2ccccc2)C1=O [Example 50, 2(S)-(3R-Benzyl-4-N-morpholin-1-yl-carbonyl-2-keto-piperazin-1-yl)-hexanoicacid Amide of 2(S)-Amino-1-cyclohexyl-3(R),4(S)-dihydroxy-6-methylheptane]",22 nM
20,"CC(C)C[C@H](O)[C@H](O)[C@H](CC1CCCCC1)NC(=O)[C@H](Cc1c[nH]cn1)N1CCN(C(=O)N2CCOCC2)[C@H](Cc2ccccc2)C1=O [Example 51, 3-(4-Imidazolyl)-2(S)-(3R-benzyl-4-N-morpholin-1-yl-carbonyl-2-keto-piperazin-1-yl) -propionic Acid Amide of 2(S)-Amino-1-cyclohexyl-3(R),4(S)-dihydroxy-6-methylheptane]",230 nM
21,"CC(C)C[C@H](O)[C@H](O)[C@H](CC1CCCCC1)NC(=O)[C@H](Cc1cnc[nH]1)N1CC[C@H](Cc2ccccc2)C1=O [Example 73, (2S)-2-(Imidazol-4-ylmethyl)-2-((3S)-phenylmethyl-2-oxo-pyrrolidin-1-yl)acetic acid amide of (2S,3R,4S)-2-amino-1-cyclohexyl-3,4-dihydroxy-6-methylheptane]",67 nM
22,"CC(C)C[C@H](O)[C@H](O)[C@H](CC1CCCCC1)NC(=O)[C@H](Cc1cnc[nH]1)N1C[C@H](Cc2ccccc2)N(CC(C)C)C1=O [Example 118, (2S)-2-(Imidazol-4-ylmethyl)-2-(3-isobutyl-(4S)-phenylmethylimidazolidin-2-one-1-yl)acetic Acid Amide of (2)-Amino-1-cyclohexyl-3(R),4(S)-dihydroxy-6-methylheptane]",150 nM

# Now from value to compound:
row,IC50,SMILES
1,15 nM,"CC(C)C[C@H](O)[C@H](O)[C@H](CC1CCCCC1)NC(=O)C(Cc1cnc[nH]1)N1CCC(Cc2ccccc2)(NC(=O)OCc2ccccc2)C1=O (single isomer, unassigned) [Example 63B]"
2,4.5 nM,"CC(C)C[C@H](O)[C@H](O)[C@H](CC1CCCCC1)NC(=O)C(Cc1cnc[nH]1)N1CCC(Cc2ccccc2)(NC(=O)OCc2ccccc2)C1=O (single isomer, unassigned) [Example 63C]"
3,6.2 nM,"CCCCC(C(=O)N[C@@H](CC1CCCCC1)[C@@H](O)[C@@H](O)CC(C)C)N1CCN(C(=O)N2CCOCC2)[C@H](Cc2ccccc2)C1 (stereo partly drawn) [Example 38A, 2-(3R-Benzyl-4-N-(morpholin-1-yl-carbonyl)-piperazin)-1-yl-hexanoic acid Amide of 2(S)-Amino-1-cyclohexyl-3(R),4(S)-dihydroxy-6-methylheptane]"
4,32 nM,"CC(C)C[C@H](O)[C@H](O)[C@H](CC1CCCCC1)NC(=O)C(Cc1cscn1)N1CCN(C(=O)N2CCOCC2)[C@H](Cc2ccccc2)C1=O (stereo partly drawn) [Example 49B, 3-(4-Thiazolyl)-2-(3R-benzyl-4-N-morpholin-1-yl-carbonyl-2-keto-piperazin-1-yl)-propionic acid Amide of 2(S)-Amino-1-cyclohexyl-3(R),4(S)-dihydroxy-6-methylheptane]"
